{
  "source": "patent US20030007949A1",
  "about": "“Adhesive treatment for tinea corporis” (CLOSURE MEDICAL CORPORATION, priority 2001, published 2003)",
  "experiment": "Observation of haloprogin / 2-octyl cyanoacrylate monomer composition after preparation",
  "format": "physicochemical",
  "conditions": "30 mg haloprogin in 2 mL 2-octyl cyanoacrylate monomer, observed at about one minute and at least twenty-four hours after preparation",
  "protocol": "A 2-octyl cyanoacrylate monomer composition is prepared by adding 30 mg of haloprogin, an anti-fungal agent, to 2 mL of 2-octyl cyanoacrylate monomer. The mixture is sealed in a glass vial and stirred. The characteristics of the composition are observed at about one minute after preparation and later at least twenty-four hours after preparation.",
  "data": [
    {"smiles": "Clc1cc(Cl)c(OCC#CI)cc1Cl", "note": "[haloprogin]", "values": [
      {"measurement": "premature polymerization caused in the monomer", "result": "does not cause premature polymerization"},
      {"measurement": "solubility of haloprogin in the monomer", "setting": "sealed glass vial, stirred", "result": "soluble"}
    ]}
  ]
}
